Source: the supplement of paper PMC10307832

Columns and labels:
Experiment in all cases: relative viability (nuclei count vs DMSO), 5 days (fraction); higher = more cells survive
Salubrinal + Pemetrexed = compound: O=C(/C=C/c1ccccc1)NC(NC(=S)Nc1cccc2cccnc12)C(Cl)(Cl)Cl [Salubrinal] + Nc1nc2[nH]cc(CCc3ccc(C(=O)N[C@@H](CCC(=O)O)C(=O)O)cc3)c2c(=O)[nH]1 [Pemetrexed] (partner 0.2 µM)
Method in brief: (§1)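 Lung cancer cell lines were pin-tool dosed in 1536-well plates on the day after seeding, with either a lone drug or a fixed anchor-drug dose plus five library-drug doses (not always all listed) in √10 steps. Nuclei were counted on 4× images after 5 days. Relative viability is the ratio of treated-well to vehicle-well nuclei counts, with each value a median of duplicate plates.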

Salubrinal + Olaparib = compound: O=C(/C=C/c1ccccc1)NC(NC(=S)Nc1cccc2cccnc12)C(Cl)(Cl)Cl [Salubrinal] + O=C(c1cc(Cc2n[nH]c(=O)c3ccccc23)ccc1F)N1CCN(C(=O)C2CC2)CC1 [Olaparib] (partner 8 µM)
Method in brief: as §1

[1] = compound: Cc1ccc2nc(NCCN)c3ncc(C)n3c2c1 + C[C@]1(O)C[C@@H](c2nc(-c3ccc4ccc(-c5ccccc5)nc4c3)c3c(N)nccn32)C1 [Linsitinib] (partner 1 µM)
Method in brief: as §1

Salubrinal + Crizotinib = compound: O=C(/C=C/c1ccccc1)NC(NC(=S)Nc1cccc2cccnc12)C(Cl)(Cl)Cl [Salubrinal] + C[C@@H](Oc1cc(-c2cnn(C3CCNCC3)c2)cnc1N)c1c(Cl)ccc(F)c1Cl [Crizotinib] (partner 1 µM)
Method in brief: as §1

| Cell Line | relative viability (Salubrinal + Pemetrexed; first compound 0.08 µM) | relative viability (Salubrinal + Pemetrexed; first compound 0.253 µM) | relative viability (Salubrinal + Pemetrexed; first compound 0.8 µM) | relative viability (Salubrinal + Pemetrexed; first compound 2.53 µM) | relative viability (Salubrinal + Pemetrexed; first compound 8 µM) | relative viability (Salubrinal + Olaparib; first compound 0.08 µM) | relative viability (Salubrinal + Olaparib; first compound 0.253 µM) | relative viability (Salubrinal + Olaparib; first compound 0.8 µM) | relative viability (Salubrinal + Olaparib; first compound 2.53 µM) | relative viability (Salubrinal + Olaparib; first compound 8 µM) | relative viability ([1]; first compound 0.04 µM) | relative viability ([1]; first compound 0.1265 µM) | relative viability ([1]; first compound 0.4 µM) | relative viability ([1]; first compound 1.265 µM) | relative viability ([1]; first compound 4 µM) | relative viability (Salubrinal + Crizotinib; first compound 0.08 µM) | relative viability (Salubrinal + Crizotinib; first compound 0.253 µM) | relative viability (Salubrinal + Crizotinib; first compound 0.8 µM) | relative viability (Salubrinal + Crizotinib; first compound 2.53 µM) | relative viability (Salubrinal + Crizotinib; first compound 8 µM) |
| --- | --- | --- | --- | --- | --- | --- | --- | --- | --- | --- | --- | --- | --- | --- | --- | --- | --- | --- | --- | --- |
| NCI-H1975 | 0.321 | 0.283 | 0.337 | 0.318 | 0.28 | 0.926 | 0.59 | 0.777 | 0.769 | 0.613 | 0.972 | 0.93 | 0.91 | 0.897 | 0.893 | 1.07 | 0.722 | 1.06 | 0.992 | 0.816 |
| CAL-12T | 1.4 | 0.754 | 1.46 | 1.07 | 1.21 | 0.7 | 0.711 | 0.751 | 0.725 | 0.648 | 0.835 | 0.873 | 0.853 | 0.877 | 0.731 | 0.661 | 0.484 | 0.806 | 0.48 | 0.446 |
| NCI-H2342 | 0.722 | 0.772 | 0.937 | 0.758 | 0.826 | 0.456 | 0.45 | 0.455 | 0.432 | 0.497 |  |  |  |  |  |  |  |  |  |  |
| HCC-44 | 0.641 | 0.708 | 0.66 | 0.698 | 0.662 | 1 | 0.968 | 1.03 | 0.957 | 1.03 | 0.869 | 0.632 | 0.652 | 0.625 | 0.69 | 0.833 | 0.801 | 0.863 | 0.748 | 0.759 |
| EKVX | 0.411 | 0.361 | 0.444 | 0.385 | 0.325 | 0.986 | 0.816 | 0.884 | 0.852 | 0.815 | 1.04 | 0.972 | 0.962 | 0.865 | 0.805 | 1.16 | 0.811 | 0.971 | 0.974 | 1.07 |
| NCI-H1651 | 0.655 | 0.393 | 0.781 | 0.604 | 0.6 | 0.189 | 0.181 | 0.208 | 0.152 | 0.183 | 0.982 | 0.837 | 0.982 | 0.928 | 0.795 | 0.923 | 0.864 | 0.925 | 0.858 | 0.9 |
| NCI-H1648 | 0.843 | 0.637 | 0.759 | 0.705 | 0.584 | 0.751 | 1.03 | 0.476 | 1.02 | 0.594 |  |  |  |  |  |  |  |  |  |  |
| NCI-H1703 |  |  |  |  |  | 0.414 | 0.721 | 0.416 | 0.486 | 0.385 | 1.43 | 0.74 | 0.72 | 1.23 | 0.715 | 0.535 |  | 1.06 | 0.701 | 0.576 |
| Calu-6 |  |  |  |  |  | 0.632 | 0.522 | 0.723 | 0.591 | 0.453 | 0.872 | 0.895 | 0.966 | 0.982 | 0.983 | 0.949 | 0.644 | 0.898 | 0.821 | 0.728 |
| EBC-1 |  |  |  |  |  | 0.787 | 0.616 | 0.73 | 0.604 | 0.585 | 1.08 | 1.13 | 0.874 | 0.866 | 0.793 | 0.207 | 0.214 | 0.22 | 0.211 | 0.18 |
